Reference: PMC4940736 (Scientific Reports, 2016)

Key:
[1] = biological target: MARV NP (amino acids 19–370) (Lake Victoria marburgvirus, UniProt P27588); type: binding, Marburg virus
[2] = biological target: EBOV NP (amino acids 36–351) (Zaire ebolavirus, UniProt P18272); type: binding, Ebola virus
Sequence of EBOV NP (amino acids 36–351) (P18272 36-351 limits assumed): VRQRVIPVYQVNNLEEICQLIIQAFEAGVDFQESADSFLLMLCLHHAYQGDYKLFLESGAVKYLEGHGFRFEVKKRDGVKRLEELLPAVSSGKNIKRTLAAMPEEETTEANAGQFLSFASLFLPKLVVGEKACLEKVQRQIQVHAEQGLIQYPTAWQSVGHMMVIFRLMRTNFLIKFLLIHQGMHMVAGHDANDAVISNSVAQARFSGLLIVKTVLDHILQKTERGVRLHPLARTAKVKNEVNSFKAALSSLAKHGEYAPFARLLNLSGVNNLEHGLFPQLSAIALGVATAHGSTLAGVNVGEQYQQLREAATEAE

Sequence of MARV NP (amino acids 19–370) (P27588 19-370 limits assumed): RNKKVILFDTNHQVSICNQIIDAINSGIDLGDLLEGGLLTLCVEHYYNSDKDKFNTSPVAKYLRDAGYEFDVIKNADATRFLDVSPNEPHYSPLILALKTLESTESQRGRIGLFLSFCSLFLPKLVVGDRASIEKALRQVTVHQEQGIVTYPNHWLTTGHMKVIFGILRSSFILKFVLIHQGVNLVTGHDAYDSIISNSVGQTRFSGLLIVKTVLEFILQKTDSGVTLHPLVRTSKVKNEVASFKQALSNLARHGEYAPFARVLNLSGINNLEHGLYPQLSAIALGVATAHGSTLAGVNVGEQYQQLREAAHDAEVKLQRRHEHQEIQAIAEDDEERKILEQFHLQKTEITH

| Molecule | S/N AVE [1] | VIP [1] | putative ligand in licorice crude extract screen [1] | S/N AVE [2] | VIP [2] | putative ligand in licorice crude extract screen [2] |
| --- | --- | --- | --- | --- | --- | --- |
| CC1(C)[C@@H](O[C@H]2O[C@H](C(=O)O)[C@@H](O)[C@H](O)[C@H]2O[C@@H]2O[C@H](C(=O)O)[C@@H](O)[C@H](O)[C@H]2O)CC[C@]2(C)[C@H]3C(=O)C=C4[C@@H]5C[C@@](C)(C(=O)O)CC[C@]5(C)CC[C@@]4(C)[C@]3(C)CC[C@@H]12 [GC6, Glycyrrhizin] | 0.96 | 1.39 | did not observe its direct binding | 1.15 | 5.23 | did not observe its direct binding |
| O=C1C[C@@H](c2ccc(O)cc2)Oc2cc(O)ccc21 [GC8, Liquiritigenin] | 1.50 | 0.65 | – | 1.04 | 0.47 | – |
| glycyrrhetinic acid [GC7/10] | – | – | met the aforementioned thresholds | – | 1.44 | met the aforementioned thresholds |
| COc1ccc(-c2coc3cc(O[C@@H]4O[C@H](CO)[C@@H](O)[C@H](O)[C@H]4O)ccc3c2=O)cc1 [GC5, Ononin] | 1.76 | 1.28 | – | 1.46 | 1.09 | – |
| O=C(/C=C/c1ccc(O)cc1)c1ccc(O[C@@H]2O[C@H](CO)[C@@H](O)[C@H](O)[C@H]2O)cc1O [GC4, Neoisoliquiritin] | 1.72 | 1.31 | – | 1.58 | 1.18 | – |
| C=CC(C)(C)c1cc(/C=C/C(=O)c2ccc(O)cc2)c(OC)cc1O [GC13, Licochalcone A] | 6.85 | 2.03 | met the aforementioned thresholds | 5.17 | 2.27 | met the aforementioned thresholds |
| COc1ccc(-c2coc3cc(O)ccc3c2=O)cc1O [GC9, Calycosin] | 1.36 | 0.16 | – | 1.01 | 0.14 | – |
| O=c1cc(-c2ccc(O)cc2)oc2c([C@@H]3OC[C@H](O)[C@H](O)[C@H]3O)c(O)c([C@@H]3O[C@H](CO)[C@@H](O)[C@H](O)[C@H]3O)c(O)c12 [GC3, Schaftoside] | 1.62 | 1.60 | – | 1.11 | 0.60 | – |
| O=C(/C=C/c1ccc(O[C@@H]2O[C@H](CO)[C@@H](O)[C@H](O)[C@H]2O)cc1)c1ccc(O)cc1O [GC14, Isoliquiritin] | 1.73 | 2.12 | – | 1.22 | 1.29 | – |
